Test results taken from US8575158B2, “1-phenyl-substituted heterocyclyl derivatives and their use as prostaglandin D2 receptor modulators” (Actelion Pharmaceuticals Ltd., priority 2010, dated 2013).

Molecular target: T1, hCRTH2 receptor (Homo sapiens, UniProt Q9Y5Y4)
T1 construct: expressed in transfected cells; host or cells: HEK293
T1 sequence (Q9Y5Y4 1-395): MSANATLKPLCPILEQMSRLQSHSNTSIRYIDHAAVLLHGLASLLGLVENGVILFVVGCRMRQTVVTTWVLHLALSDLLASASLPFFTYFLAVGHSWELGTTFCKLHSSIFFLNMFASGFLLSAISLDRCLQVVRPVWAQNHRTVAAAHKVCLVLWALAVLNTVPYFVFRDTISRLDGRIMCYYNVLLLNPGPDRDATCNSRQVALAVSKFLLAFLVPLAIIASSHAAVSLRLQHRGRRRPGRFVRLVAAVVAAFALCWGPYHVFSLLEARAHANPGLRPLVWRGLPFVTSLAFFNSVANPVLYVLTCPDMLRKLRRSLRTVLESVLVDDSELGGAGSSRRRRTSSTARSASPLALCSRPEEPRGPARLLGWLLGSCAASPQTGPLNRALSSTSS
Assay: Radioligand displacement assay (3H-PGD2) on hCRTH2 receptor membranes
Assay type: binding
Conditions: antagonistic activity

[1] = 3H-PGD2 radioligand displacement, HEK293-hCRTH2 membranes
[2] = radioligand displacement (3H-PGD2), hCRTH2 receptor membranes

`O=C(O)COc1ccc(Cl)cc1[C@@H]1c2cccc(F)c2CCN1C(=O)OCc1ccccc1F` [Example 359, (S)-1-(2-Carboxymethoxy-5-chloro-phenyl)-5-fluoro-3,4-dihydro-1H-isoquinoline-2-carboxylic acid 2-fluoro-benzyl ester] was tested, and the IC50 [1] was 0.00179 µM.

In the case of `O=C(O)COc1ccc(Cl)cc1[C@@H]1c2ccc(F)cc2CCN1C(=O)OCc1ccccc1` [Example 367], the IC50 [1] is reported as 0.00489 µM.

`Cc1nn(CCC(=O)N2CCc3cc(F)ccc3[C@H]2c2cc(Cl)ccc2OCC(=O)O)c2cccc(F)c12` [Example 391] showed an IC50 [1] of 0.158 µM.

`Cc1nn(CCC(=O)N2CCc3cc(F)ccc3[C@H]2c2cc(Cl)ccc2OCC(=O)O)c2c(F)cccc12` [Example 392] was tested, and the IC50 [1] was 0.273 µM.

With `Cc1nn(CCC(=O)N2CCc3cc(F)ccc3[C@H]2c2cc(Cl)ccc2OCC(=O)O)c2cc(F)ccc12` [Example 393] the IC50 [1] was 0.154 µM.

`Cc1nn(CCC(=O)N2CCc3cc(F)ccc3[C@H]2c2cc(Cl)ccc2OCC(=O)O)c2cc(Cl)ccc12` [Example 394] gave an IC50 [1] of 0.185 µM.

Compound `O=C(O)COc1ccc(Cl)cc1[C@@H]1c2ccc(F)cc2CCN1C(=O)CCn1ncc2cc(F)ccc21` [Example 395, (4-Chloro-2-{(S)-6-fluoro-2-[3-(5-fluoro-indazol-1-yl)-propionyl]-1,2,3,4-tetrahydro-isoquinolin-1-yl}-phenoxy)-acetic acid] has an IC50 [1] of 0.0284 µM.

Compound `O=C(O)COc1ccc(Cl)cc1[C@@H]1c2ccc(F)cc2CCN1C(=O)CCn1ncc2cc(Cl)ccc21` [Example 396] has an IC50 [1] of 0.152 µM.

For `Cc1nn(CCC(=O)N2CCc3cc(F)ccc3[C@H]2c2cc(Cl)ccc2OCC(=O)O)c2ccccc12` [Example 397, (4-Chloro-2-{(S)-6-fluoro-2-[3-(3-methyl-indazol-1-yl)-propionyl]-1,2,3,4-tetrahydro-isoquinolin-1-yl}-phenoxy)-acetic acid], the IC50 [1] was 0.0321 µM.

`O=C(O)COc1ccc(Cl)cc1[C@@H]1c2ccc(F)cc2CCN1C(=O)CCn1ncc2ccc(F)cc21` [Example 398] gave an IC50 [1] of 0.0647 µM.

In the case of `O=C(O)COc1ccc(Cl)cc1[C@@H]1c2ccc(F)cc2CCN1C(=O)CCn1ncc2c(F)cccc21` [Example 399], the IC50 [1] is reported as 0.144 µM.

With `O=C(O)COc1ccc(Cl)cc1[C@@H]1c2ccc(F)cc2CCN1C(=O)CCn1ncc2cccc(Cl)c21` [Example 400] the IC50 [1] was 0.678 µM.

`O=C(O)COc1ccc(Cl)cc1[C@@H]1c2ccc(F)cc2CCN1C(=O)CCn1ncc2ccc(Cl)cc21` [Example 401, (4-Chloro-2-{(S)-2-[3-(6-chloro-indazol-1-yl)-propionyl]-6-fluoro-1,2,3,4-tetrahydro-isoquinolin-1-yl}-phenoxy)-acetic acid] was tested, and the IC50 [1] was 0.0469 µM.

`O=C(O)COc1ccc(Cl)cc1[C@@H]1c2ccc(F)cc2CCN1C(=O)CCn1ncc2c(Cl)cccc21` [Example 402] showed an IC50 [1] of 0.17 µM.

`O=C(O)COc1ccc(Cl)cc1[C@@H]1c2ccc(F)cc2CCN1C(=O)CCn1ncc2cccc(F)c21` [Example 403] was tested, and the IC50 [1] was 0.0791 µM.

`CC[C@@H]1C[C@H]1C(=O)N1CCc2ccccc2[C@H]1c1cc(Cl)ccc1OCC(=O)O` [Example 460] gave an IC50 [1] of 0.0678 µM.

With `CCO[C@@H]1C[C@H]1C(=O)N1CCc2ccccc2[C@H]1c1cc(Cl)ccc1OCC(=O)O` [Example 461] the IC50 [1] was 0.185 µM.

With `C[C@@H]1C[C@H]1C(=O)N1CCc2ccccc2[C@H]1c1cc(Cl)ccc1OCC(=O)O` [Example 462] the IC50 [1] was 0.0809 µM.

Work on `O=C(O)COc1ccc(Cl)cc1C1c2ccccc2CN1C(=O)C1CC1c1ccccc1` (stereo not drawn) [Example 503, {4-Chloro-2-[2-trans-(2-phenyl-cyclopropanecarbonyl)-2,3-dihydro-1H-isoindol-1-yl]-phenoxy}-acetic acid] yielded an IC50 [1] of 0.0112 µM.

For `O=C(O)COc1ccc(Cl)cc1C1c2ccccc2CN1C(=O)C1CC1c1cccc(F)c1` (stereo not drawn) [Example 523, (4-Chloro-2-{2-trans-[2-(3-fluoro-phenyl)-cyclopropanecarbonyl]-2,3-dihydro-1H-isoindol-1-yl}-phenoxy)-acetic acid], the IC50 [1] was 0.0405 µM.

In the case of `O=C(O)COc1ccc(Cl)cc1C1c2ccccc2CN1C(=O)C1CC1c1cccc(Cl)c1` (stereo not drawn) [Example 524, (4-Chloro-2-{2-trans-[2-(3-chloro-phenyl)-cyclopropanecarbonyl]-2,3-dihydro-1H-isoindol-1-yl}-phenoxy)-acetic acid], the IC50 [1] is reported as 0.0813 µM.

Work on `O=C(O)COc1ccc(Cl)cc1C1c2ccccc2CN1C(=O)C1CC1c1ccccc1F` (stereo not drawn) [Example 525, (4-Chloro-2-{2-trans-[2-(2-fluoro-phenyl)-cyclopropanecarbonyl]-2,3-dihydro-1H-isoindol-1-yl}-phenoxy)-acetic acid] yielded an IC50 [1] of 0.0135 µM.

`O=C(O)COc1ccc(Cl)cc1C1c2ccccc2CN1C(=O)CCn1ncc2cc(Cl)ccc21` (stereo not shown) [Example 544] was tested, and the IC50 [1] was 0.34 µM.

With `O=C(O)COc1ccc(Cl)cc1C1c2ccccc2CN1C(=O)CCn1ncc2ccc(Cl)cc21` (stereo not shown) [Example 549] the IC50 [1] was 0.18 µM.

`O=C(O)COc1ccc(Cl)cc1C1c2ccccc2CN1C(=O)CCn1ncc2c(Cl)cccc21` (stereo not shown) [Example 550] showed an IC50 [1] of 0.24 µM.

`Cc1ccccc1[C@@H]1C[C@H]1C(=O)N1CCc2ccccc2[C@H]1c1cc(Cl)ccc1OCC(=O)O` [Example 560, {4-Chloro-2-[(S)-2-((1R,2R)-2-o-tolyl-cyclopropanecarbonyl)-1,2,3,4-tetrahydro-isoquinolin-1-yl]-phenoxy}-acetic acid] showed an IC50 [1] of 0.00327 µM.

`Cc1ccccc1[C@H]1C[C@@H]1C(=O)N1CCc2ccccc2[C@H]1c1cc(Cl)ccc1OCC(=O)O` [Example 561, {4-Chloro-2-[(S)-2-((1S,2S)-2-o-tolyl-cyclopropanecarbonyl)-1,2,3,4-tetrahydro-isoquinolin-1-yl]-phenoxy}-acetic acid] gave an IC50 [2] of 0.274 µM.

`O=C(O)COc1ccc(Cl)cc1[C@@H]1c2ccccc2CCN1C(=O)[C@@H]1C[C@H]1c1ccccc1C(F)(F)F` [Example 562, (4-Chloro-2-{(S)-2-[(1R,2R)-2-(2-trifluoromethyl-phenyl)-cyclopropanecarbonyl]-1,2,3,4-tetrahydro-isoquinolin-1-yl}-phenoxy)-acetic acid] gave an IC50 [2] of 0.00375 µM.

`O=C(O)COc1ccc(Cl)cc1[C@@H]1c2ccccc2CCN1C(=O)[C@H]1C[C@@H]1c1ccccc1C(F)(F)F` [Example 563, (4-Chloro-2-{(S)-2-[(1S,2S)-2-(2-trifluoromethyl-phenyl)-cyclopropanecarbonyl]-1,2,3,4-tetrahydro-isoquinolin-1-yl}-phenoxy)-acetic acid] showed an IC50 [2] of 0.264 µM.

`O=C(O)COc1ccc(Cl)cc1[C@@H]1c2ccccc2CCN1C(=O)[C@@H]1C[C@H]1c1cccc(Cl)c1` [Example 564, (4-Chloro-2-{(S)-2-[(1R,2R)-2-(3-chloro-phenyl)-cyclopropanecarbonyl]-1,2,3,4-tetrahydro-isoquinolin-1-yl}-phenoxy)-acetic acid] gave an IC50 [2] of 0.00429 µM.

For `O=C(O)COc1ccc(Cl)cc1[C@@H]1c2ccccc2CCN1C(=O)[C@@H]1C[C@H]1c1cccc(F)c1` [Example 565, (4-Chloro-2-{(S)-2-[(1R,2R)-2-(3-fluoro-phenyl)-cyclopropanecarbonyl]-1,2,3,4-tetrahydro-isoquinolin-1-yl}-phenoxy)-acetic acid], the IC50 [2] was 0.00264 µM.

In the case of `O=C(O)COc1ccc(Cl)cc1[C@@H]1c2ccccc2CCN1C(=O)[C@@H]1C[C@H]1c1ccc(F)cc1` [Example 566, (4-Chloro-2-{(S)-2-[(1R,2R)-2-(4-fluoro-phenyl)-cyclopropanecarbonyl]-1,2,3,4-tetrahydro-isoquinolin-1-yl}-phenoxy)-acetic acid], the IC50 [2] is reported as 0.00217 µM.

`N#CNC(=O)COc1ccc(Cl)cc1[C@@H]1c2ccccc2CCN1C(=O)OCc1ccccc1` [Example 567, (S)-benzyl 1-(5-chloro-2-(2-cyanamido-2-oxoethoxy)phenyl)-3,4-dihydroisoquinoline-2(1H)-carboxylate] gave an IC50 [2] of 0.37 µM.

Compound `O=C(COc1ccc(Cl)cc1[C@@H]1c2ccccc2CCN1C(=O)OCc1ccccc1)NS(=O)(=O)C(F)(F)F` [Example 568, (S)-1-[5-Chloro-2-(2-oxo-2-trifluoromethanesulfonylamino-ethoxy)-phenyl]-3,4-dihydro-1H-isoquinoline-2-carboxylic acid benzyl ester] has an IC50 [2] of 0.00918 µM.

For `O=C(COc1ccc(Cl)cc1[C@@H]1c2ccccc2CCN1C(=O)OCc1ccccc1)NO` [Example 569, (S)-1-(5-Chloro-2-hydroxycarbamoylmethoxy-phenyl)-3,4-dihydro-1H-isoquinoline-2-carboxylic acid benzyl ester], the IC50 [2] was 0.12 µM.

In the case of `O=C(OCc1ccccc1)N1CCc2ccccc2C1c1cc(Cl)ccc1OCc1nnn[nH]1` (stereo not shown) [Example 570, (γ)-1-[5-Chloro-2-(1H-tetrazol-5-ylmethoxy)-phenyl]-3,4-dihydro-1H-isoquinoline-2-carboxylic acid benzyl ester], the IC50 [2] is reported as 0.355 µM.

Work on `O=C(OCc1ccccc1)N1CCc2ccccc2[C@H]1c1cc(Cl)ccc1OCc1n[nH]c(=O)o1` [Example 571, (S)-1-[5-Chloro-2-(5-oxo-4,5-dihydro-[1,3,4]oxadiazol-2-ylmethoxy)-phenyl]-3,4-dihydro-1H-isoquinoline-2-carboxylic acid benzyl ester] yielded an IC50 [2] of 0.055 µM.
